According to patent US5320825A, “Serotonin reuptake inhibitors for S.P.E.C.T. imaging” (Trustees of the University of Pennsylvania, priority 1991, dated 1994):
Counter-ions that a name gives are not always drawn. Like-named read-outs stand apart in the source and are kept apart here.

What was measured:
serotonin reuptake sites = molecular target: T1, serotonin reuptake sites (Rattus norvegicus, UniProt P31652); assay: in vitro competitive binding assay, serotonin uptake sites, [3H]-Paroxetine
T1 construct: in rat brain tissue preparation; from tissue
From the text: (§1) The affinity of the compounds prepared in Examples 1-4 to serotonin and norepinephrine uptake sites was studied using in vitro competitive binding assays.

[1] = molecular target: norepinephrine reuptake sites (Rattus norvegicus, UniProt Q63380); assay: in vitro competitive binding assay, norepinephrine uptake sites, [3H]-Nisoxetine; settings: rat brain tissue preparation
From the text: as §1

[2] = molecular target: dopamine (DA) reuptake system; settings: read-out: Inhibition of monoamine uptake, DA (Ki), cited from earlier work
[3] = for Biodistribution, Blood / Biodistribution, Brain / Biodistribution, Heart / Biodistribution, Kidney / Biodistribution, Liver / Biodistribution, Lung / Biodistribution, Muscle / Biodistribution, Skin / Biodistribution, Spleen / Biodistribution, Thyroid: rat, iv
rat brain sections = settings: ex vivo autoradiography, 2 hr. post i.v. injection, paroxetine 10 mg/Kg, i.p.
[4] = tested on: prefrontal cortex membrane of rat brain; settings: in vitro
[5] = molecular target: norepinephrine (NE) reuptake system; settings: rat synaptosomes; read-out: Inhibition of monoamine uptake, NE (Ki); cited from earlier work
[6] = molecular target: serotonin reuptake system (5-HT); settings: read-out: Inhibition of monoamine uptake, 5-HT (Ki), cited from earlier work
[7] = Biodistribution of compound 7 in rats after an iv injection; type: in vivo; settings: rat
Description: The biodistribution of [R]-(-)-N-methyl-3-phenyl-3-(4-^123 I-2-methylphenoxy)propylamine hydrochloride (compound 7) in rats, after intravenous injection, was analyzed. Results are presented in Table 4 and indicate that moderate brain uptake (0.64-0.84% dose/organ) is found consistently throughout the two hour period.

[8] = n = 3, 2nd time column (time not given)
[9] = n = 3, 4th time column (time not given)

T1 sequence (P31652 whole entry): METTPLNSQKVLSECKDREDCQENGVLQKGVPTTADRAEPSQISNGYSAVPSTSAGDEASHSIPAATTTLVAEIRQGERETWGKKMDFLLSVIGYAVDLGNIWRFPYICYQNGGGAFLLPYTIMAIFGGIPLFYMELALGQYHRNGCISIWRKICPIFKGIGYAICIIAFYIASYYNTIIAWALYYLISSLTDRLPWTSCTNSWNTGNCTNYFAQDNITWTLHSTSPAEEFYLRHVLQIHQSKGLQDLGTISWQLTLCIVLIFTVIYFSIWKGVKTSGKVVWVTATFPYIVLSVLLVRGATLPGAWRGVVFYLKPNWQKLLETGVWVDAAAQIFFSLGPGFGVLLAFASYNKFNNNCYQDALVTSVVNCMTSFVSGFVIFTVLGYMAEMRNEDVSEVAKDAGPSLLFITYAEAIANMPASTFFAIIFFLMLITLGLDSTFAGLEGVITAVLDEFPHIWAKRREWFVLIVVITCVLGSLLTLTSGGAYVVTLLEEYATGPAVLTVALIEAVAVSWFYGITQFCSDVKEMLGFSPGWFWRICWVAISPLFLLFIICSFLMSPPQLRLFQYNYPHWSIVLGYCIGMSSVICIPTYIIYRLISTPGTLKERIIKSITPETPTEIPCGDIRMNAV
Chain of norepinephrine reuptake sites (Q63380 1-617): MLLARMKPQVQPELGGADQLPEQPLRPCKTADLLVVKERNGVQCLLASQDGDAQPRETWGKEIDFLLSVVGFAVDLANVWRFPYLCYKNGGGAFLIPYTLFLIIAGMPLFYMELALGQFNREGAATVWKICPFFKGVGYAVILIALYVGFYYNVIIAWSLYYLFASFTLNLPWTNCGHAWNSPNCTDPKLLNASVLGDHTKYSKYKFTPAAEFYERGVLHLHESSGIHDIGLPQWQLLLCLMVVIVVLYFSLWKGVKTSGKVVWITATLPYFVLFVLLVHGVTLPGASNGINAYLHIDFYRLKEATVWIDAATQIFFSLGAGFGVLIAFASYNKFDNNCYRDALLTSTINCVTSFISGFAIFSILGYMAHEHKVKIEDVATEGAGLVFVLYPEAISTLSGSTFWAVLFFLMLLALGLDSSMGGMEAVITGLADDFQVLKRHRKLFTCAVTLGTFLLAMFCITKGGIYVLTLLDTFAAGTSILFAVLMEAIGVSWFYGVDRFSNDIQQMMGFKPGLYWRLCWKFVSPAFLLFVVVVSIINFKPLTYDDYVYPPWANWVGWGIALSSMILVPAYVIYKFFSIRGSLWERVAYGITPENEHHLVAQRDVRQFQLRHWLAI

## CNCC[C@@H](Oc1cccc(I)c1)c1ccccc1 [Compound 4, [R]-(-)-N-Methyl-3-phenyl-3-(3-iodophenoxy)propylamine]
Serotonin reuptake sites
  Ki: 0.8 nM
[1]
  IC50: 500 nM

## CNCCC(Oc1ccc(C(F)(F)F)cc1)c1ccccc1 (stereo not shown) [Fluoxetine]
[2]
  Ki: 1590 nM

## CNCCC(Oc1ccc(C(F)(F)F)cc1)c1ccc([125I])cc1 (racemic) [Compound 15, iodo-fluoxetine]
[3]; 2 min.
  initial brain uptake: 0.68 % dose/organ
  Biodistribution, Blood: 3.03 ± 0.40 % dose/organ
  Biodistribution, Brain: 0.61 ± 0.12 % dose/organ
  Biodistribution, Heart: 2.27 ± 0.31 % dose/organ
  Biodistribution, Kidney: 4.16 ± 0.36 % dose/organ
  Biodistribution, Liver: 15.92 ± 2.41 % dose/organ
  Biodistribution, Lung: 11.09 ± 2.32 % dose/organ
  Biodistribution, Muscle: 12.71 ± 5.3 % dose/organ
  Biodistribution, Skin: 4.90 ± 0.50 % dose/organ
  Biodistribution, Spleen: 0.61 ± 0.06 % dose/organ
  Biodistribution, Thyroid: 0.10 ± 0.04 % dose/organ
[3]; 8 hr.
  brain retention: 0.63 % dose/organ
[3]; 15 min.
  Biodistribution, Blood: 1.71 ± 0.31 % dose/organ
  Biodistribution, Brain: 0.68 ± 0.02 % dose/organ
  Biodistribution, Heart: 1.14 ± 0.04 % dose/organ
  Biodistribution, Kidney: 4.05 ± 0.44 % dose/organ
  Biodistribution, Liver: 16.27 ± 2.35 % dose/organ
  Biodistribution, Lung: 6.77 ± 0.25 % dose/organ
  Biodistribution, Muscle: 16.01 ± 4.55 % dose/organ
  Biodistribution, Skin: 5.84 ± 0.95 % dose/organ
  Biodistribution, Spleen: 0.93 ± 0.15 % dose/organ
  Biodistribution, Thyroid: 0.07 ± 0.03 % dose/organ
[3]; 60 min.
  Biodistribution, Blood: 3.16 ± 0.36 % dose/organ
  Biodistribution, Brain: 0.78 ± 0.01 % dose/organ
  Biodistribution, Heart: 0.43 ± 0.05 % dose/organ
  Biodistribution, Kidney: 2.32 ± 0.38 % dose/organ
  Biodistribution, Liver: 17.64 ± 1.88 % dose/organ
  Biodistribution, Lung: 7.32 ± 0.45 % dose/organ
  Biodistribution, Muscle: 22.63 ± 4.48 % dose/organ
  Biodistribution, Skin: 10.76 ± 2.85 % dose/organ
  Biodistribution, Spleen: 1.20 ± 0.13 % dose/organ
  Biodistribution, Thyroid: 0.08 ± 0.01 % dose/organ
[3]; 120 min.
  Biodistribution, Blood: 3.62 ± 0.24 % dose/organ
  Biodistribution, Brain: 0.84 ± 0.073 % dose/organ
  Biodistribution, Heart: 0.48 ± 0.02 % dose/organ
  Biodistribution, Kidney: 1.82 ± 0.21 % dose/organ
  Biodistribution, Liver: 11.55 ± 0.78 % dose/organ
  Biodistribution, Lung: 7.21 ± 0.36 % dose/organ
  Biodistribution, Muscle: 24.22 ± 0.68 % dose/organ
  Biodistribution, Skin: 10.08 ± 0.78 % dose/organ
  Biodistribution, Spleen: 1.09 ± 0.07 % dose/organ
  Biodistribution, Thyroid: 0.10 ± 0.02 % dose/organ
[3]; 240 min.
  Biodistribution, Blood: 4.99 ± 0.70 % dose/organ
  Biodistribution, Brain: 0.70 ± 0.031 % dose/organ
  Biodistribution, Heart: 0.28 ± 0.01 % dose/organ
  Biodistribution, Kidney: 1.18 ± 0.17 % dose/organ
  Biodistribution, Liver: 11.52 ± 0.91 % dose/organ
  Biodistribution, Lung: 7.57 ± 2.36 % dose/organ
  Biodistribution, Muscle: 20.38 ± 2.67 % dose/organ
  Biodistribution, Skin: 8.27 ± 0.75 % dose/organ
  Biodistribution, Spleen: 0.71 ± 0.11 % dose/organ
  Biodistribution, Thyroid: 0.14 ± 0.001 % dose/organ
[3]; 480 min.
  Biodistribution, Blood: 7.61 ± 1.11 % dose/organ
  Biodistribution, Brain: 0.61 ± 0.07 % dose/organ
  Biodistribution, Heart: 0.32 ± 0.03 % dose/organ
  Biodistribution, Kidney: 1.11 ± 0.06 % dose/organ
  Biodistribution, Liver: 16.47 ± 2.03 % dose/organ
  Biodistribution, Lung: 5.00 ± 0.46 % dose/organ
  Biodistribution, Muscle: 19.90 ± 2.61 % dose/organ
  Biodistribution, Skin: 10.78 ± 0.07 % dose/organ
  Biodistribution, Spleen: 0.52 ± 0.048 % dose/organ
  Biodistribution, Thyroid: 0.22 ± 0.06 % dose/organ
[3]; rats, 2 min. post injection
  initial heart uptake: 2.3%
[3]; rats, 8 hr. post injection
  heart uptake: 0.3%
Rat brain sections
  regional distribution pattern in rat brain sections, effect of paroxetine pretreatment: not altered by pretreatment of paroxetine
[4]
  non-specific binding: strong non-specific binding

## CNCCC(Oc1ccccc1OC)c1ccccc1 (stereo not shown) [Nisoxetine]
[2]; rat synaptosomes
  Ki: 365 nM
[5]
  Ki: 670 nM
[6]; rat synaptosomes
  Ki: 3.8 nM

## CN[C@@H]1CC[C@@H](c2ccccc2)c2ccccc21 [Tametraline]
[2]; rat synaptosomes
  Ki: 60 nM
[5]
  Ki: 20 nM
[6]; rat synaptosomes
  Ki: 50 nM

## CN[C@@H]1C[C@@H](c2ccc(Cl)c(Cl)c2)c2ccccc21 (relative stereo) [Indatraline trans, Indatraline]
[2]
  Ki: 2000 nM
[5]
  Ki: 90 nM
[6]
  Ki: 0.58 nM

## CNCC[C@H](Oc1cccc(I)c1)c1ccccc1 [Compound 11, [S]-(+)-N-Methyl-3-phenyl-3-(3-iodophenoxy)propylamine]
Serotonin reuptake sites; rat brain tissue preparation, [3H]-Paroxetine, read-out: Serotonin Uptake [3H]-Paroxetine Ki
  Ki: 8.2 nM
[1]
  IC50: 7000 nM

## CNCC[C@H](Oc1ccc(I)cc1C)c1ccccc1 [Compound 14, {S}-(+)-N-Methyl-3-phenyl-3-(4-iodo-2-methylphenoxy)propylamine hydrochloride]
Serotonin reuptake sites
  Ki: 0.8 nM
[1]
  IC50: 9 nM

## Fc1ccc([C@@H]2CCNC[C@H]2COc2ccc3c(c2)OCO3)cc1 [Paroxetine]
[5]
  Ki: 350 nM

## CNCC[C@@H](Oc1ccc(I)cc1C)c1ccccc1.Cl [Compound 7, [R]-(-)-N-Methyl-3-phenyl-3-(4-iodo-2-methylphenoxy)propylamine hydrochloride]
Serotonin reuptake sites
  Ki: 5 nM
[1]
  IC50: 20 nM
[7]; [8]
  Biodistribution, Blood: 2.19 ± 0.32 % dose/organ
  Biodistribution, Brain: 0.80 ± 0.04 % dose/organ
  Biodistribution, Heart: 0.55 ± 0.04 % dose/organ
  Biodistribution, Kidney: 2.70 ± 0.48 % dose/organ
  Biodistribution, Lung: 9.36 ± 1.52 % dose/organ
  Biodistribution, Skin: 6.75 ± 1.35 % dose/organ
  Biodistribution, Spleen: 1.09 ± 0.32 % dose/organ
  Biodistribution, Thyroid: 0.07 ± 0.02 % dose/organ
[7]; [9]
  Biodistribution, Blood: 2.39 ± 0.33 % dose/organ
  Biodistribution, Brain: 0.68 ± 0.01 % dose/organ
  Biodistribution, Kidney: 1.12 ± 0.44 % dose/organ
  Biodistribution, Lung: 6.81 ± 0.76 % dose/organ
  Biodistribution, Skin: 6.92 ± 0.83 % dose/organ
  Biodistribution, Spleen: 0.79 ± 0.05 % dose/organ
[7]; throughout the two hour period
  brain uptake: 0.64-0.84 % dose/organ

## CN[C@@H]1C[C@H](c2ccc(Cl)c(Cl)c2)c2ccccc21 (relative stereo) [Indatraline cis, Indatraline]
[2]
  Ki: 860 nM
[5]
  Ki: 34 nM
[6]
  Ki: 0.03 nM
